According to US9701670B2, “Pyrazolyl-ureas as kinase inhibitors” (RESPIVERT LIMITED, priority 2013, dated 2017):

Legend:
[1] = test system: 71 receptors and 26 enzymes; test: Diversity Profile (Cerep); type: binding; conditions: 300 nM
Description: Studies were conducted by Cerep (Celle-Lévescault, France) to investigate the binding of the compound of Example 77 to a diverse selection of receptors and to investigate either the inhibition or activation of a selection of enzymes (the “Diversity Profile” comprising a total of 71 receptors and 26 enzymes).

B-Raf = B-Raf (Homo sapiens (Human), UniProt P15056); test: Enzyme binding assay (Kinomescan)
Description: (§1) The kinase enzyme binding activities of compounds disclosed herein were determined using a proprietary assay which measures active site-directed competition binding to an immobilized ligand (Fabian, M. A. et al., Nature Biotechnol., 2005, 23:329-336). These assays were conducted by DiscoverX (formerly Ambit; San Diego, Calif.). The percentage inhibition produced by incubation with a test compound is calculated relative to the non-inhibited control.

[2] = Plasma pharmacokinetics in beagle dogs; type: in vivo, male beagle dogs; conditions: Dog
Description: A study was conducted by Sai Life Sciences (Hinjewadi, Pune, India) to investigate the plasma pharmacokinetics of the compound of Example 77 in male beagle dogs following a single intravenous or oral administration.
A group of three male beagle dogs were administered orally with an aqueous suspension formulation (having 2% HPMC and 0.5% Tween 80) of the compound of Example 77, at a dose of 1 mg/kg. In addition, a group of three male beagle dogs were administered intravenously with a solution formulation (in 5% v/v DMSO, 7.5% w/v Solutol HS 15 and 87.5% saline (0.9% w/v NaCl)) of the compound of Example 77, at a dose of 0.05 mg/kg. Blood samples (approximately 1.5 mL) were collected from jugular vein such that the samples were obtained at pre-dose, 0.25, 0.5, 1, 2, 4, 6, 8, and 24 hr (p.o.) and pre-dose, 0.08, 0.25, 0.5, 1, 2, 4, 8, 12, 24 and 32 hr (i.v.) post dose. The blood samples were collected from a set of three dogs at each time point in labelled micro centrifuge tube containing K2EDTA as anticoagulant. Plasma samples were separated by centrifugation at 2500 g for 10 min of whole blood and stored below −70° C. until bioanalysis. All samples were processed for analysis by protein precipitation using acetonitrile and analyzed with LC-MS/MS method (LLOQ=0.50 ng/mL). Pharmacokinetic parameters were calculated using the non-compartmental analysis tool of Phoenix WinNonlin® (Version 6.3).

[3] = test system: Salmonella typhimurium, strains TA98 and TA100; test: Mutagenicity assessment (bacterial reverse mutation screen); type: cell-based; conditions: TA98 and TA100, presence or absence of S-9 mix, up to 5000 μg/plate
Description: Studies were conducted by Sequani (Ledbury, Herefordshire, UK) to assess the compound of Example 77 in vitro for its ability to induce mutations in two histidine dependent auxotrophic mutants of Salmonella typhimurium, strains TA98 and TA100.
The mutation screen was conducted using the plate incorporation method and was performed in both the presence and absence of S-9 mix (a liver post-mitochondrial fraction derived from the livers of Aroclor 1254 treated rats). The bacteria were exposed to the compound of Example 77 dissolved in dimethylsulphoxide, which solvent was also used as the negative control. The dose levels used were 0.32, 1.6, 8, 40, 200, 1000 or 5000 μg/plate.

B-Raf (V600e) = B-Raf (V600e) (Homo sapiens (Human), UniProt P15056, V600E); test: Enzyme binding assay (KINOMEscan)
Description: as §1

[4] = Hepatic microsomal stability; type: in vitro ADME; conditions: scaled from intrinsic clearance, mean of two experiments
Description: (§2) • Microsomal stability assays were performed with incubations of test compounds at 0.1 μM (n=2, final DMSO concentration 0.25%), and carried out using pooled human, dog and rat hepatic microsomes from Xenotech (Lots 1210153, 0810143 and 1110042, respectively) at 0.25 mg protein/mL in the presence of co-factor, NADPH. The incubations were performed at 37° C. with 100 μL aliquots taken from the incubation, at 0, 2, 5, 10 and 20 minutes and reactions terminated by addition of 100 μL of acetonitrile containing carbamazepine as analytical internal standard. […] Half-life values were calculated from the relationship T1/2(min)=−0.693/λ • where λ was the slope of the Ln concentration vs time curve. • The in vitro intrinsic clearance, CIint (mL/min/kg), was calculated and scaled to hepatic extraction ratios using the following scaling parameters and formulae.
(§3) Formulae CIint(tissue clearance) mL/min/kg=[0.693/t½(min)]×[1/microsomal protein concentration mg/mL]×[mg microsomes/g liver]×[g liver/kg body weight] […] The incubations were performed at 37° C. with 100 μL samples taken from the incubation, at 0, 10, 20, 45 and 90 minutes, and reactions terminated by addition of 100 μL of acetonitrile containing carbamazepine as analytical internal standard. […] Half-life values were calculated from the relationship T1/2(min)=−0.693/λ • where λ was the slope of the Ln concentration vs time curve. • Standard compounds testosterone, midazolam and 4-methylumbelliferone are included in the assay design.

[5] = Hepatic microsomal stability; type: in vitro ADME, human
Description: as §2, §3

[6] = test system: Intestinal mucosa biopsies from the inflamed regions of the colon of IBD patients; test: (h) Human biopsy assay (cytokine release); type: cell-based
Description: Intestinal mucosa biopsies are obtained from the inflamed regions of the colon of IBD patients. The biopsy material is cut into small pieces (2-3 mm) and placed on steel grids in an organ culture chamber at 37° C. in a 5% CO2/95% O2 atmosphere in serum-free media. DMSO control or test compounds at the desired concentration are added to the tissue and incubated for 24 hr in the organ culture chamber. The supernatant is harvested for determination of IL-6, IL-8, […] and TNFα levels by R&D ELISA.

[7] = male, beagle, plasma, intravenous 0.05 mg/kg

Sequence of B-Raf (P15056 whole entry): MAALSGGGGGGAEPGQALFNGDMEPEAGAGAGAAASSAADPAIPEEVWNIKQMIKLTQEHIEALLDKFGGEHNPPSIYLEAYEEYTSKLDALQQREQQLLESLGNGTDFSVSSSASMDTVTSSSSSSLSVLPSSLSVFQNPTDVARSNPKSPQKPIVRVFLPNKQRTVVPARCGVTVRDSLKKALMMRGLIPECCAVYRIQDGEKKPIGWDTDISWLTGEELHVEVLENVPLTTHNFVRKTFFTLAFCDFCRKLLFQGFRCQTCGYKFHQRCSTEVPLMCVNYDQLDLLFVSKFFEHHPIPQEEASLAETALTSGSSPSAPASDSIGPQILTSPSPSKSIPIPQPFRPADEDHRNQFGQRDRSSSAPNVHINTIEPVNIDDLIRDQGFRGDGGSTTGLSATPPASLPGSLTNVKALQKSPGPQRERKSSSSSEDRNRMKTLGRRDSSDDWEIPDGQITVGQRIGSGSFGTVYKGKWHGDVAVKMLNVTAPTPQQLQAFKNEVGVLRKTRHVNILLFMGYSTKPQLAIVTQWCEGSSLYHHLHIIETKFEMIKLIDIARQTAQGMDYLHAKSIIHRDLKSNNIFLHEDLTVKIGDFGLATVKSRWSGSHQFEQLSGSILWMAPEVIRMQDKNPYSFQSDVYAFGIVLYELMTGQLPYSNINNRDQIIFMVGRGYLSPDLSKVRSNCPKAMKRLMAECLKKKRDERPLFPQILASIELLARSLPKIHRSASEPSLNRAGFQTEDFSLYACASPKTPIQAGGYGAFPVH
Sequence of B-Raf (V600e) (P15056 whole entry V600E): as the sequence (P15056 whole entry) above, with V600E counted along it

C#Cc1cc(Nc2nccc(Oc3ccc(NC(=O)Nc4cc(C(C)(C)C)nn4-c4ccc(OC)cc4)c4ccccc34)n2)cc(C(=O)NCCN2CCOCC2)c1 [Example 77, 3-((4-((4-(3-(3-(tert-Butyl)-1-(4-methoxyphenyl)-1H-pyrazol-5-yl)ureido)-naphthalen-1-yl)oxy)pyrimidin-2-yl)amino)-5-ethynyl-N-(2-morpholinoethyl)benzamide]
inhibition of the control specific binding in the receptor binding assays or enzyme assays [1]: less than 25%
effect on the binding of the kinase B-Raf to its standard ligand (B-Raf): did not have any effect
plasma exposure after oral administration ([2]; 1 mg/kg p.o.): no plasma exposure at all was observed
Fpo ([2]; 1 mg/kg p.o., Plasma): 0%
AUC(0-inf) [2, 7]: 37 ng·h/mL
AUC(0-t) [2, 7]: 33.6 ng·h/mL
C0 [2, 7]: 283 ng/mL
Vd [2, 7]: 1.8 L/kg
clearance [2, 7]: 25.4 mL/min/kg
half-life [2, 7]: 150 min
ability to induce mutations (revertant colonies) [3]: no dose-related or statistically significant increases in revertant colonies
effect on the binding of the kinase B-Raf (V600e) to its standard ligand (B-Raf (V600e)): did not have any effect
Mean hepatic extraction ratio (Eh) ([4]; dog hepatic microsomes): 0.94
Mean hepatic extraction ratio (Eh) ([4]; rat hepatic microsomes): 0.82
hepatic clearance ([5]; conclusion from Tables 9a and 9b (hepatic microsomes and hepatocytes)): high hepatic clearance
Mean hepatic extraction ratio (Eh) ([5]; human hepatic microsomes, scaled from intrinsic clearance, mean of two experiments): 0.94
Cytokine release from biopsies of UC patients IL-1b release ([6]; 1 μg/mL, DMSO control 100%): 26 ± 16%
Cytokine release from biopsies of UC patients IL-6 release ([6]; 1 μg/mL, DMSO control 100%): 67 ± 128%
Cytokine release from biopsies of UC patients IL-8 release ([6]; 1 μg/mL, DMSO control 100%): 36 ± 117%
cytokine release from biopsies from ulcerative colitis (UC) patients ([6]; added to biopsies in vitro): markedly reduced IL-1b, IL-6 and IL-8 release
